Source: patent US20030206953A1, “Aggregates of spherical multivalent metal alginate microparticles and methods of making them” (priority 1997, published 2003)
≈ marks a conversion by molar mass, not a printed value.

Columns and labels:
[1] = Dissolution test, paddle method, second solution (artificial intestinal juice, pH 6.8); assay type: physicochemical; settings: artificial intestinal juice (second solution, pH 6.8); within two hours; FIG. 3
Description: As used herein, the term “artificial intestinal juice (the second solution, pH 6.8)” refers to a phosphate buffer of pH 6.8 as described in the Japanese Pharmacopoeia (the 13th Amendment), the section of dissolution test, the second method (paddle method). As used herein, the term “dissolution rate” refers to a value given by dividing the actual elution concentration of a slightly soluble medicament by the calculated elution concentration and expressing the resultant value as a percent. Here, the term “calculated elution concentration” refers to the concentration given when hypothesizing that the entire slightly soluble medicament added to the second solution is dissolved. For example, the calculated elution concentration of a slightly soluble medicament given when 5 g of the medicament is added to 500 ml of the second solution is 10 mg/ml. In this case, when the actual elution concentration is 5 mg/ml, the dissolution rate is 50%.
In general, the dissolution rate of a slightly soluble medicament by itself is slow in the artificial intestinal juice, and the saturated dissolution amount is small. Therefore, the saturated dissolution concentration tends to be smaller than the calculated concentration. […]

[2] = physchem; settings: 20 °C, water, thermodynamic from solid
Description: (§1) As used herein, the term “solubility” in accordance with the Japanese Pharmacopoeia (the 13th Amendment) refers to the degree of dissolution of a medicament in a solvent within 30 minutes when 1 g of the medicament is added to the solvent and mixing them with vigorous shaking at intervals of 5 minutes at 20° C.±5° C. In the present specification, the solubility is evaluated in accordance with this method. When the amount (ml) of water required to dissolve 1 g of a medicament is 30 ml or more, the solubility of the medicament represents the grades of “slightly soluble” or “hardly soluble”.

[3] = Solubility in water per Japanese Pharmacopoeia (13th Amendment); settings: 20 °C, thermodynamic from solid
Description: as §1

Compound	dissolution rate [1]	solubility at 30 min [2] [µg/mL]	solubility at 30 min [3] [µg/mL]
COc1ccc2c(c1)c(CC(=O)O)c(C)n2C(=O)c1ccc(Cl)cc1 [Indomethacin, indomethacin]	less than 40%	< 100	
CC(=O)Nc1ccc(O)cc1 [Acetaminophen, acetaminophen]		13100 (≈ 86.7 mM)	
CCOc1ccccc1C(N)=O [Ethenzamide]			< 100
CC(=O)Oc1ccccc1C(=O)O [Aspirin, aspirin]			3630 (≈ 20.1 mM)
